In ChEMBL document CHEMBL3603813, “Quinoline-based antimalarial hybrid compounds” (Bioorg Med Chem, 2015):

Legend:
[1] = tested on: Plasmodium berghei; test: Antimalarial activity against Plasmodium berghei infected in human HuH7 cells assessed as inhibition of liver cell infection; format: functional, organism-based; details: Huh-7, Liver
[2] = tested on: Plasmodium falciparum; test: Antiplasmodial activity against CQ-resistant Plasmodium falciparum W2 assessed as inhibition of parasite growth; format: functional, organism-based
[3] = tested on: Plasmodium falciparum; test: Antiplasmodial activity against CQ-resistant Plasmodium falciparum FCR3; format: functional, organism-based
[4] = tested on: Plasmodium falciparum; test: Antiplasmodial activity against CQ-resistant Plasmodium falciparum K1; format: functional, organism-based
[5] = tested on: Plasmodium falciparum; test: Antiplasmodial activity against CQ-sensitive Plasmodium falciparum D10; format: functional, organism-based
[6] = Inhibition of beta-hematin formation; format: physicochemical
[7] = tested on: Plasmodium falciparum; test: Antiplasmodial activity against CQ-sensitive Plasmodium falciparum D6; format: functional
[8] = tested on: Plasmodium falciparum; test: Antiplasmodial activity against CQ-resistant Plasmodium falciparum 7G8; format: functional
[9] = tested on: Plasmodium falciparum; test: Antiplasmodial activity against CQ-resistant Plasmodium falciparum Dd2; format: functional, organism-based
[10] = tested on: Plasmodium falciparum; test: Antiplasmodial activity against CQ-resistant Plasmodium falciparum FcM29; format: functional
[11] = tested on: Plasmodium falciparum; test: Antiplasmodial activity against CQ-resistant Plasmodium falciparum FcB1; format: functional
[12] = tested on: Plasmodium berghei; test: Antimalarial activity against Plasmodium berghei infected in mouse assessed as reduction in parasitemia at 44 to 46 mg/kg, po; format: functional
[13] = tested on: Plasmodium berghei; test: Antimalarial activity against Plasmodium berghei infected in mouse assessed as inhibition of parasite multiplication at 5 mg/kg/day administered for 4 days measured after 7 days; format: functional

**Q.** What does the source list for `COc1cc(NC(C)CCCNC(=O)CC2CCC3(CC2)OOC2(OO3)C3CC4CC(C3)CC2C4)c2ncccc2c1` (stereo not drawn)?
**A.** IC50 [1]: 330 nM; IC50 [2]: 21 nM

**Q.** For `O=C(CS(=O)(=O)N1CCN(c2ccnc3cc(Cl)ccc23)CC1)Nc1ccccc1`, which IC50 [3] is on record?
**A.** 1200 nM

**Q.** For `C[C@H]1[C@@H](OCc2cccc(C(=O)N(CCCCNc3ccnc4cc(Cl)ccc34)CC(=O)NC3CCCCC3)c2)O[C@@H]2O[C@@]3(C)CC[C@H]4[C@H](C)CC[C@@H]1[C@@]24OO3`, which IC50 [4] is on record?
**A.** 19 nM

**Q.** What about the IC50 [5] of the same compound?
**A.** 26 nM

**Q.** For `C[C@H]1[C@@H](OCc2ccc(C(=O)N(CCNc3ccnc4cc(Cl)ccc34)CC(=O)NC(C)(C)C)cc2)O[C@@H]2O[C@@]3(C)CC[C@H]4[C@H](C)CC[C@@H]1[C@@]24OO3`, which IC50 [4] is on record?
**A.** 19 nM

**Q.** What about the IC50 [5] of the same compound?
**A.** 26 nM

**Q.** For `COc1cc(NC(C)CCCNC(=O)C2CCC3(CC2)OOC2(OO3)C3CC4CC(C3)CC2C4)c2ncccc2c1` (stereo not drawn), which IC50 [1] is on record?
**A.** 330 nM

**Q.** Which “inhibition (INH)” value [6] does the source give for `O=C(/C=C/c1ccccc1)c1cccc(Nc2ccnc3cc(Cl)ccc23)c1` here?
**A.** 94%

**Q.** What does the source list for `Clc1ccc2c(NCCN3CCN(C(c4ccccc4)c4ccccc4)CC3)ccnc2c1`?
**A.** Activity [7]: 0.5 nM; Activity [8]: 2 nM; Activity [9]: 1 nM

**Q.** With `CCN(CC)CCCC(C)Nc1ccnc2cc(Cl)ccc12` (stereo not drawn) [CHLOROQUINE] as the compound, how does the Activity [7] read?
**A.** 7 nM

**Q.** And the “inhibition (INH)” value [6]?
**A.** 94%

**Q.** What about the Activity [10] of the same compound?
**A.** 735 nM

**Q.** And the Activity [9]?
**A.** 102 nM

**Q.** And the Activity [11]?
**A.** 145 nM

**Q.** For `Clc1ccc2c(NCCCN3CCC(NC(c4ccccn4)c4ccccn4)CC3)ccnc2c1` [DM-1157], which “inhibition (INH)” value [12] is on record?
**A.** >99.9%

**Q.** Which “inhibition (INH)” value [6] does the source give for `O=C(/C=C/c1ccccc1Cl)c1cccc(Nc2ccnc3cc(Cl)ccc23)c1` here?
**A.** 94%

**Q.** With `Clc1ccc2c(NCCCN3CCN(C4C5CC6CC(C5)CC4C6)CC3)ccnc2c1` (stereo not drawn) as the compound, how does the Activity [7] read?
**A.** 0.5 nM

**Q.** And the Activity [8]?
**A.** 2 nM

**Q.** And the Activity [9]?
**A.** 1 nM

**Q.** What does the source list for `C[C@@H]1CC[C@H]2[C@@H](C)C(=O)O[C@@H]3O[C@@]4(C)CC[C@@H]1[C@]32OO4` [ARTEMISININ]?
**A.** Activity [10]: 18 nM; Activity [11]: 10 nM

**Q.** What does the source list for `C[C@H]1[C@@H](OCc2ccc(C(=O)N(CCNc3ccnc4cc(Cl)ccc34)CC(=O)NC3CCCCC3)cc2)O[C@@H]2O[C@@]3(C)CC[C@H]4[C@H](C)CC[C@@H]1[C@@]24OO3`?
**A.** IC50 [4]: 19 nM; IC50 [5]: 26 nM

**Q.** With `O=[N+]([O-])c1ccccc1S(=O)(=O)N1CCN(c2ccnc3cc(Cl)ccc23)CC1` as the compound, how does the IC50 [3] read?
**A.** 1200 nM

**Q.** For `COc1cc(NC(C)CCCNCC2CCC3(CC2)OOC2(OO3)C3CC4CC(C3)CC2C4)c2ncccc2c1` (stereo not drawn), which IC50 [1] is on record?
**A.** 330 nM

**Q.** What about the IC50 [2] of the same compound?
**A.** 21 nM

**Q.** Which results are given for `Clc1ccc2c(NCCCN3CCN(C(c4ccccc4)c4ccccc4)CC3)ccnc2c1`?
**A.** Activity [7]: 0.5 nM; Activity [8]: 2 nM; Activity [9]: 1 nM

**Q.** With `Clc1ccc2c(NCCCN3CCN(CC(c4ccccc4)c4ccccc4)CC3)ccnc2c1` as the compound, how does the Activity [7] read?
**A.** 0.5 nM

**Q.** What about the Activity [8] of the same compound?
**A.** 2 nM

**Q.** What about the Activity [9] of the same compound?
**A.** 1 nM

**Q.** With `Clc1ccc2c(NCCN3CCC(NC(c4ccccn4)c4ccccn4)CC3)ccnc2c1` as the compound, how does the “inhibition (INH)” value [12] read?
**A.** >99.9%

**Q.** For `Clc1ccc2c(NCCCCN3CCN(C(c4ccccc4)c4ccccc4)CC3)ccnc2c1`, which Activity [7] is on record?
**A.** 0.5 nM

**Q.** What about the Activity [8] of the same compound?
**A.** 2 nM

**Q.** And the Activity [9]?
**A.** 1 nM

**Q.** With `O=C(/C=C/c1ccc(Cl)cc1)c1cccc(Nc2ccnc3cc(Cl)ccc23)c1` as the compound, how does the “inhibition (INH)” value [6] read?
**A.** 94%

**Q.** Which IC50 [3] does the source give for `CCCS(=O)(=O)N1CCN(c2ccnc3cc(Cl)ccc23)CC1` here?
**A.** 1200 nM

**Q.** For `COc1cc(NC(C)CCCN)c2ncccc2c1` (stereo not drawn) [PRIMAQUINE], which IC50 [1] is on record?
**A.** 7500 nM

**Q.** Which inhibition in vivo at 5 mg/kg/day [13] does the source give for `Clc1ccc2c(Sc3ncnc4[nH]cnc34)ccnc2c1` here?
**A.** 70%
